Measured values as given in US20240252488A1 (KOREA RESEARCH INSTITUTE OF CHEMICAL TECHNOLOGY, priority 2020, published 2024).

Assays:
FADD−/− Jurkat cells = assay: Necroptosis inhibition assay, TNF-α-induced necroptosis (CellTiter-Glo 2.0); assay type: cell-based, human; settings: TNF-α 15 ng/mL, FADD−/− Jurkat cells; for Necroptosis inhibition assay (Rescue %) 1 μM: compound 1 μM; for Necroptosis inhibition assay (Rescue %) 10 μM: compound 10 μM
Summary of the method: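 FADD−/− Jurkat cells preincubated 30 min at room temperature with compound at 0.1, 1 and 10 μM final, then stimulated with TNF-α (15 ng/mL final) for 20–24 h at 37 °C, 5% CO2. Viability read as ATP luminescence; cytotoxicity and necroptosis inhibition rate calculated from luminescence values.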

MLKL [1] = target: T1, MLKL (Homo sapiens, UniProt Q8NB16); assay: MLKL degradation assay in HepG2 cell line (western blot); assay type: cell-based; parameters: endogenous in cells; host or cells: HepG2 or HaCaT; settings: cell line not given; for Degradation assay (Degradation %) 1 μM: compound 1 μM; for Degradation assay (Degradation %) 10 μM: compound 10 μM
T1 sequence (Q8NB16 1-471): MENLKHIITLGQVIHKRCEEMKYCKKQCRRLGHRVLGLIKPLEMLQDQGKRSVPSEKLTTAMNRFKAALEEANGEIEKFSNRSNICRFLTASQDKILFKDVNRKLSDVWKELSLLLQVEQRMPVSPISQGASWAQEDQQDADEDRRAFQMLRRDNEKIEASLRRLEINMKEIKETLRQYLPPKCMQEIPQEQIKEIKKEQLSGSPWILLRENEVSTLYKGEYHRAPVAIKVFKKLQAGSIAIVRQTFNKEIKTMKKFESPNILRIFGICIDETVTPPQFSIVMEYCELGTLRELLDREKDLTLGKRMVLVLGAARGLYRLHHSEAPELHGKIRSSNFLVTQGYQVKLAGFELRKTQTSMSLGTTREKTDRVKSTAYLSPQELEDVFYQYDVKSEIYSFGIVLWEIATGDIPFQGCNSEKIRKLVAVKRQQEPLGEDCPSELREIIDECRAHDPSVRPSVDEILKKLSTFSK
Summary of the method: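 HepG2 cells were treated 20-24 h at 37 °C with compound at 1 or 10 μM final. RIPA lysates were normalized by BCA, and 10-15 μg protein per lane was resolved by SDS-PAGE. MLKL was detected by western blot with chemiluminescence.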

MLKL [2] = target: T1, MLKL; assay: Measurement of binding affinity with MLKL receptor (competitive binding assay, Kd); parameters: made in house; host or cells: HEK 293 cell line (T7 phage in E. coli BL21-derived host is also described)
Summary of the method: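 HEK 293-expressed, DNA-tagged MLKL; ligand beads blocked with biotin and SeaBlock/1% BSA/0.05% Tween 20/1 mM DTT buffer. Cpd from 111× DMSO stock, 0.9% DMSO final. Eluted kinase by qPCR → Kd.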

Row | Compound | Necroptosis inhibition assay (Rescue %) 1 μM (FADD−/− Jurkat cells) [%] | Necroptosis inhibition assay (Rescue %) 10 μM (FADD−/− Jurkat cells) [%] | Degradation assay (Degradation %) 1 μM (MLKL [1]) [%] | Degradation assay (Degradation %) 10 μM (MLKL [1]) [%] | Kd (MLKL [2]) [nM]
1 | Nc1ncc(-c2cnn(C3CCN(CC4CCN(CC5CCN(C(=O)C6CCN(C7=CC(=O)N(C8CCC(=O)NC8=O)C7=O)CC6)CC5)CC4)CC3)c2)nc1C(=O)O[C@@H](C(=O)Nc1ccc(F)cc1)c1ccccc1 (stereo partly drawn) [TDH-527, (R)-2-((4-fluorophenyl)amino)-2-oxo-1-phenylethyl 3-amino-6-(1-(1-((1-((1-(1-(1-(2,6-dioxopiperidin-3-yl)-2,5-dioxo-2,5-dihydro-1H-pyrrol-3-yl)piperidine-4-carbonyl)piperidin-4-yl)methyl)piperidin-4-yl)methyl)piperidin-4-yl)-1H-pyrazol-4-yl)pyrazine-2-carboxylate] | 42.79 | −12.98 | 71.10 | 42.46 | 1.2
2 | Nc1ncc(-c2cnn(C3CCN(C4CC5(CCN(CC6CCN(C(=O)C7CCN(C8=CC(=O)N(C9CCC(=O)NC9=O)C8=O)CC7)CC6)CC5)C4)CC3)c2)nc1C(=O)O[C@@H](C(=O)Nc1ccc(F)cc1)c1ccccc1 (stereo partly drawn) [TDH-528, (R)-2-((4-fluorophenyl)amino)-2-oxo-1-phenylethyl 3-amino-6-(1-(1-(7-((1-(1-(1-(2,6-dioxopiperidin-3-yl)-2,5-dioxo-2,5-dihydro-1H-pyrrol-3-yl)piperidine-4-carbonyl)piperidin-4-yl)methyl)-7-azaspiro[3.5]nonan-2-yl)piperidin-4-yl)-1H-pyrazol-4-yl)pyrazine-2-carboxylate] | 40.69 | 0.38 | 63.93 | 56.11 | 0.18
3 | Nc1ncc(-c2cnn(C3CCN(CCOC4CCN(C(=O)C5CCN(C6=CC(=O)N(C7CCC(=O)NC7=O)C6=O)CC5)CC4)CC3)c2)nc1C(=O)O[C@@H](C(=O)Nc1ccc(F)cc1)c1ccccc1 (stereo partly drawn) [TDH-529, (R)-2-((4-fluorophenyl)amino)-2-oxo-1-phenylethyl 3-amino-6-(1-(1-(2-((1-(1-(1-(2,6-dioxopiperidin-3-yl)-2,5-dioxo-2,5-dihydro-1H-pyrrol-3-yl)piperidine-4-carbonyl)piperidin-4-yl)oxy)ethyl)piperidin-4-yl)-1H-pyrazol-4-yl)pyrazine-2-carboxylate] | 36.72 | 15.86 | 24.89 | 66.48 | 0.25
4 | Nc1ncc(-c2cnn(C3CCN(CCCN4CCN(C(=O)c5ccc6c(c5)CN(C5CCC(=O)NC5=O)C6=O)CC4)CC3)c2)nc1C(=O)O[C@@H](C(=O)Nc1ccc(F)cc1)c1ccccc1 (stereo partly drawn) [TDH-530, (R)-2-((4-fluorophenyl)amino)-2-oxo-1-phenylethyl 3-amino-6-(1-(1-(3-(4-(2-(2,6-dioxopiperidin-3-yl)-1-oxoisoindoline-5-carbonyl)piperazin-1-yl)propyl)piperidin-4-yl)-1H-pyrazol-4-yl)pyrazine-2-carboxylate] | 29.18 | 30.78 | 54.30 | 61.10 | 0.21
5 | Nc1ncc(-c2cnn(C3CCN(CCC4CCN(C(=O)C5CN(C6=CC(=O)N(C7CCC(=O)NC7=O)C6=O)C5)CC4)CC3)c2)nc1C(=O)O[C@@H](C(=O)Nc1ccc(F)cc1)c1ccccc1 (stereo partly drawn) [TDH-531, (R)-2-((4-fluorophenyl)amino)-2-oxo-1-phenylethyl 3-amino-6-(1-(1-(2-(1-(1-(1-(2,6-dioxopiperidin-3-yl)-2,5-dioxo-2,5-dihydro-1H-pyrrol-3-yl)azetidine-3-carbonyl)piperidin-4-yl)ethyl)piperidin-4-yl)-1H-pyrazol-4-yl)pyrazine-2-carboxylate] | 16.12 | 15.34 | 67.64 | 53.49 | 0.28
6 | Nc1ncc(-c2cnn(C3CCN(CCCN4CCN(C(=O)C5CN(C6=CC(=O)N(C7CCC(=O)NC7=O)C6=O)C5)CC4)CC3)c2)nc1C(=O)O[C@@H](C(=O)Nc1ccc(F)cc1)c1ccccc1 (stereo partly drawn) [TDH-532, (R)-2-((4-fluorophenyl)amino)-2-oxo-1-phenylethyl 3-amino-6-(1-(1-(3-(4-(1-(1-(2,6-dioxopiperidin-3-yl)-2,5-dioxo-2,5-dihydro-1H-pyrrol-3-yl)azetidine-3-carbonyl)piperazin-1-yl)propyl)piperidin-4-yl)-1H-pyrazol-4-yl)pyrazine-2-carboxylate] | 21.37 | 24.82 | 73.88 | 38.71 | 1.4
7 | Nc1ncc(-c2cnn(C3CCN(CC4CCN(CC5CCN(C(=O)C6CN(C7=CC(=O)N(C8CCC(=O)NC8=O)C7=O)C6)CC5)CC4)CC3)c2)nc1C(=O)O[C@@H](C(=O)Nc1ccc(F)cc1)c1ccccc1 (stereo partly drawn) [TDH-533, (R)-2-((4-fluorophenyl)amino)-2-oxo-1-phenylethyl 3-amino-6-(1-(1-((1-((1-(1-(1-(2,6-dioxopiperidin-3-yl)-2,5-dioxo-2,5-dihydro-1H-pyrrol-3-yl)azetidine-3-carbonyl)piperidin-4-yl)methyl)piperidin-4-yl)methyl)piperidin-4-yl)-1H-pyrazol-4-yl)pyrazine-2-carboxylate] | 11.86 | 22.99 | 33.35 | 29.05 | 0.47
8 | Nc1ncc(-c2cnn(C3CCN(C4CC5(CCN(CC6CCN(C(=O)C7CN(C8=CC(=O)N(C9CCC(=O)NC9=O)C8=O)C7)CC6)CC5)C4)CC3)c2)nc1C(=O)O[C@@H](C(=O)Nc1ccc(F)cc1)c1ccccc1 (stereo partly drawn) [TDH-534, (R)-2-((4-fluorophenyl)amino)-2-oxo-1-phenylethyl 3-amino-6-(1-(1-(7-((1-(1-(1-(2,6-dioxopiperidin-3-yl)-2,5-dioxo-2,5-dihydro-1H-pyrrol-3-yl)azetidine-3-carbonyl)piperidin-4-yl)methyl)-7-azaspiro[3.5]nonan-2-yl)piperidin-4-yl)-1H-pyrazol-4-yl)pyrazine-2-carboxylate] | 21.33 | 22.25 | 49.96 | 24.88 | 0.24
9 | Nc1ncc(-c2cnn(C3CCN(CCCN4CCN(C(=O)c5ccc(C(=O)NC6CCC(=O)NC6=O)cc5)CC4)CC3)c2)nc1C(=O)O[C@@H](C(=O)Nc1ccc(F)cc1)c1ccccc1 (stereo partly drawn) [TDH-535, (R)-2-((4-fluorophenyl)amino)-2-oxo-1-phenylethyl 3-amino-6-(1-(1-(3-(4-(4-((2,6-dioxopiperidin-3-yl)carbamoyl)benzoyl)piperazin-1-yl)propyl)piperidin-4-yl)-1H-pyrazol-4-yl)pyrazine-2-carboxylate] | 20.08 | 23.78 | 57.69 | 44.41 | 0.96
